Organism: Homo sapiens
Experiment: Concentration required to inhibit collagen-induced platelet aggregation in human platelet rich plasma (PRP)
Assay type: functional

## CC(C)(/C=C/C(O)c1ccc(C(=N)N)cc1)C(=O)N1CCC(CC(=O)O)CC1 (configuration not stated)
  IC50: 7600 nM

## CC(C)(/C=C/C(=O)c1ccc(C(=N)N)cc1)C(=O)N1CCC(CC(=O)O)CC1
  IC50: 210 nM

## CCCCCCOC(/C=C/c1ccc(C(=N)N)cc1)C(C)(C)C(=O)N1CCC(CC(=O)O)CC1 (configuration not stated)
  IC50: 1600 nM

## CCOC(/C=C/c1ccc(C(=N)N)cc1)C(C)(C)C(=O)N1CCC(CC(=O)O)CC1 (configuration not stated)
  IC50: 260 nM

## CC(C)(C(=O)N1CCC(CC(=O)O)CC1)C(/C=C/c1ccc(C(=N)N)cc1)OCc1ccccc1 (configuration not stated)
  IC50: 730 nM

## CC(C)(C(=O)N1CCC(CC(=O)O)CC1)C(O)/C=C/c1ccc(C(=N)N)cc1 (configuration not stated)
  IC50: 600 nM

## COC(CCc1ccc(C(=N)N)cc1)C(C)(C)C(=O)N1CCC(CC(=O)O)CC1 (configuration not stated)
  IC50: 480 nM

## C#CCOC(/C=C/c1ccc(C(=N)N)cc1)C(C)(C)C(=O)N1CCC(CC(=O)O)CC1 (configuration not stated)
  IC50: 270 nM

## CC(C)(C(=O)N1CCC(CC(=O)O)CC1)/C(O)=C/C(=O)c1ccc(C(=N)N)cc1
  IC50: 600000 nM

## CC(C)(C(=O)/C=C/c1ccc(C(=N)N)cc1)C(=O)N1CCC(CC(=O)O)CC1
  IC50: 3500 nM

## COC(/C=C/c1ccc(C(=N)N)cc1)C(C)(C)C(=O)N1CCC(CC(=O)O)CC1 (configuration not stated)
  IC50: 250 nM

## CC(C)(CCC(=O)c1ccc(C(=N)N)cc1)C(=O)N1CCC(CC(=O)O)CC1
  IC50: 630 nM

From ChEMBL document CHEMBL1151587, “Development of new non-peptide GPIIb/IIIa antagonists, NSL-95315 and NSL-95317, isosteres of NSL-95300” (Bioorg Med Chem Lett, 1997)
